Laboratory results: patent US12569460B2, “Application of thyroid hormones and thyroid hormone analogues to preparation of drugs for treating sickle-cell disease” (RUIJIN HOSPITAL, SHANGHAI JIAO TONG UNIVERSITY SCHOOL OF …, priority 2020, dated 2026)

Columns and labels:
ζ-globin gene (hbae5) [1] = assay: Whole-mount mRNA in situ hybridization (WISH) of ζ-globin gene (hbae5) in zebrafish embryos; format: in vivo; details: 5 μmol/L, 24 hours
Method: (§1) K562 cells were cultured in RPMI 1640 medium supplemented with 10% (v/v) fetal bovine serum; Hemin was dissolved into 0.2 mol/L NaOH solution, and the working concentration for treating K562 cells is 20 μmol/L; Triac, T3 and T4 were dissolved into dimethyl sulfoxide (DMSO), and the working concentration for treating K562 cells and zebrafish embryos is 20 μmol/L and 5 μmol/L, respectively.
After treatment with Triac, T3 and T4 for 24 hours, respectively, zebrafish embryos were fixed by 4% paraformaldehyde. The expression of ζ-globin gene (hbae5) was detected by Whole-mount mRNA in situ hybridization (WISH).

ζ-globin gene (hbae5) [2] = assay: qPCR of ζ-globin gene (hbae5) expression in zebrafish embryos; format: in vivo; details: 5 μmol/L, 24 hours
Method: as §1
After treatment with Triac, T3 and T4 for 24 hours, respectively, zebrafish embryos were collected. TRIzol reagent (Invitrogen) was used to extract total RNA, then a reverse transcription kit (ReverTra Ace, TOYOBO) was used to synthesize cDNA, and finally, a SYBRGreen Realtime PCR Master Mix (TOYOBO) reagent was used to perform quantitative PCR.
(§2) The quantitative PCR reaction system is:
(§3) The quantitative PCR reaction conditions are: • hot start: 95° C., 10 minutes; • denaturation: 95° C., 10 seconds; and • annealing/extension: 60° C., 30 seconds. • 40 circles. Analysis of a […]

ζ-globin gene (HBZ) = assay: qPCR of ζ-globin gene (HBZ) expression in hemin-treated K562 cells; format: cell-based, human; details: hemin plus Triac 20 μmol/L, 72 hours
Method: as §1
K562 cells were treated with hemin or hemin plus Triac for 72 hours, respectively, centrifugation was performed at 2000 rpm for 5 minutes to collect cells, a TRIzol reagent (Invitrogen) was used to extract total RNA, then a reverse transcription kit (ReverTra Ace, TOYOBO) was used to synthesize cDNA, and finally, a SYBR Green Realtime PCR Master Mix (TOYOBO) reagent was used to perform quantitative PCR.
as §2, §3

N[C@@H](Cc1cc(I)c(Oc2cc(I)c(O)c(I)c2)c(I)c1)C(=O)O [T4, 3,3′,5,5′-tetraiodothyronine]
expression of ζ-globin gene (hbae5) by WISH (ζ-globin gene (hbae5) [1]): significantly induce the expression
expression of ζ-globin gene (hbae5) up-regulated (qPCR) (ζ-globin gene (hbae5) [2]): 41 folds

N[C@@H](Cc1cc(I)c(Oc2ccc(O)c(I)c2)c(I)c1)C(=O)O [T3, 3,3′,5-Triiodo-L-thyronine]
expression of ζ-globin gene (hbae5) by WISH (ζ-globin gene (hbae5) [1]): significantly induce the expression
expression of ζ-globin gene (hbae5) up-regulated (qPCR) (ζ-globin gene (hbae5) [2]): 31 folds

O=C(O)Cc1cc(I)c(Oc2ccc(O)c(I)c2)c(I)c1 [Triac, 2-[4-(4-Hydroxy-3-iodophenoxy)-3,5-diiodophenyl] acetic acid]
expression of ζ-globin gene (HBZ) up-regulated (qPCR) (ζ-globin gene (HBZ)): 50.9 folds
expression of ζ-globin gene (hbae5) by WISH (ζ-globin gene (hbae5) [1]): significantly induce the expression
expression of ζ-globin gene (hbae5) up-regulated (qPCR) (ζ-globin gene (hbae5) [2]): 76 folds
